Measurements taken from US7217865B2, “Transgenic high tryptophan plants” (Monsanto Technology LLC, priority 2001, dated 2007).
Like-named read-outs stand apart in the source and are kept apart here.

How the values were obtained:
Assay type in all cases: biochemical
[1] = molecular target: Agrobacterium tumefaciens anthranilate synthase variant N52F, SEQ ID NO:62 (Agrobacterium fabrum, UniProt A9CI26, N52F); assay: Anthranilate synthase enzyme assay and kinetic analysis, N52F mutant
Description: (§1) Site directed mutagenesis was used to generate ten single amino acid substitutions six sites. The mutations were introduced into the Agrobacterium tumefaciens AS in pMON34705 using the QuikChange™ Site-Directed Mutagenesis Kit (Stratagene). The primers used for site directed mutagenesis were SEQ ID NO:9–42 (FIG. 7; F=forward, R=reverse). Each primer sequence is specific for alteration of the nucleic acid at a specific location in the sequence and thus changing the encoded codon to code for a new amino acid. For example, S51C designates a change from serine to cysteine at amino acid position 51 in the Agrobacterium tumefaciens AS peptide sequence.
(§2) Following mutagenesis the sequence of the entire gene was reconfirmed and the variants expressed and purified from E. coli as described below for the wild type enzyme. The resultant plasmids comprising mutant Agrobacterium tumefaciens AS are suitably cloned into a plasmid for overproduction of protein using the T7 expression system as described in Example 1.
(§3) Agrobacterium tumefaciens AS wild type and mutant enzymes were expressed in E. coli as described in Example 1. The purification of all the Agrobacterium tumefaciens AS enzymes, including wild type and mutants therof, was performed at 4° C. The cells (approximate wet weight of 1 g) were suspended in 20 ml of purification buffer (50 mM potassium phosphate, pH […], 10 mM 2-mercaptoethanol, 10% glycerol) and lysed by ultrasonication (Branson sonifier Cell Disruptor, W185). Supernatant was collected after centrifugation of the homogenate at 20,000× g for 15 min. The supernatant was subjected to ammonium sulfate fractionation (30 to 65% saturation). The precipitate was collected after centrifugation at 20,000× g for […] and dissolved in 3 ml of the purification buffer and then loaded as a whole on an Econo-Pac 10DG desalting column, pre-equilibrated with the same buffer. Fractions containing the enzyme were detected by the developed assay and pooled. The pooled enzyme (4.3 mls) was loaded on a 10 ml DEAE Sephacel (Pharmacia Biotech) column (1.5×7.5 cm) equilibrated with the same buffer. The column was washed with 30 ml of the purification buffer and the enzyme was eluted with 30 ml of 50 mM NaCl in the same buffer. Fractions containing high AS activity were pooled and precipitated by 65% ammonium sulfate saturation and isolated and desalted as above. Fractions containing the enzyme were pooled and stored at −80° C.
(§4) The standard assay for Agrobacterium tumefaciens AS was performed at 25° C. in an assay buffer containing 100 mM potassium phosphate, pH 7.0, 1 0 mM MgCl2, 1 mM dithiothreitol, 200 μM chorismate and 10 mM L-glutamine. The reaction was started by adding 30 μl of enzyme to the reaction mixture and mixing. The formation of anthranilate was directly monitored by the absorbance increase at […] for 3 min. Initial rate of reaction was calculated as unit absorbance increase per second based on the slope of the absorbance change over the reaction time. Km for chorismate (Km^Cho) was determined in the total volume of 1 ml assay buffer containing 100 mM potassium phosphate, pH 7.0, 10 mM MgCl2, 1 mM dithiothreitol with 10 mM L-glutamine and varying the concentration of chorismate between 2.5–100 μM chorismate. […] Kinetic parameters and IC50 of AS were calculated after fitting the data to a non-linear regression program (GraFit).

[2] = molecular target: Agrobacterium tumefaciens anthranilate synthase variant V48Y, SEQ ID NO:59 (Agrobacterium fabrum, UniProt A9CI26, V48Y); assay: Anthranilate synthase enzyme assay and kinetic analysis, V48Y mutant
Description: as §1, §2, §3, §4

[3] = molecular target: Agrobacterium tumefaciens anthranilate synthase variant P293G, SEQ ID NO:64 (Agrobacterium fabrum, UniProt A9CI26, P293G); assay: Anthranilate synthase enzyme assay and kinetic analysis, P293G mutant
Description: as §1, §2, §3, §4

[4] = molecular target: Agrobacterium tumefaciens anthranilate synthase variant S51F, SEQ ID NO:60 (Agrobacterium fabrum, UniProt A9CI26, S51F); assay: Anthranilate synthase enzyme assay and kinetic analysis, S51F mutant
Description: as §1, §2, §3, §4

[5] = molecular target: Agrobacterium tumefaciens anthranilate synthase variant S50K, SEQ ID NO:69 (Agrobacterium fabrum, UniProt A9CI26, S50K); assay: Anthranilate synthase enzyme assay and kinetic analysis, S50K mutant
Description: as §1, §2, §3, §4

[6] = molecular target: Agrobacterium tumefaciens anthranilate synthase variant V48F, SEQ ID NO:58 (Agrobacterium fabrum, UniProt A9CI26, V48F); assay: Anthranilate synthase enzyme assay and kinetic analysis, V48F mutant
Description: as §1, §2, §3, §4

[7] = molecular target: Agrobacterium tumefaciens anthranilate synthase variant P293A, SEQ ID NO:63 (Agrobacterium fabrum, UniProt A9CI26, P293A); assay: Anthranilate synthase enzyme assay and kinetic analysis, P293A mutant
Description: as §1, §2, §3, §4

[8] = molecular target: Agrobacterium tumefaciens anthranilate synthase (AgroAS), wild type, SEQ ID NO:4 (Agrobacterium fabrum, UniProt A9CI26); assay: Anthranilate synthase enzyme assay and kinetic analysis, wild type
Description: as §3
The standard assay for Agrobacterium tumefaciens AS was performed at 25° C. in an assay buffer containing 100 mM potassium phosphate, pH 7.0, 1 0 mM MgCl2, 1 mM dithiothreitol, 200 μM chorismate and 10 mM L-glutamine. The reaction was started by adding 30 μl of enzyme to the reaction mixture and mixing. The formation of anthranilate was directly monitored by the absorbance increase at […] for 3 min. Initial rate of reaction was calculated as unit absorbance increase per second based on the slope of the absorbance change over the reaction time. Km for chorismate (Km^Cho) was determined in the total volume of 1 ml assay buffer containing 100 mM potassium phosphate, pH 7.0, 10 mM MgCl2, 1 mM dithiothreitol with 10 mM L-glutamine and varying the concentration of chorismate between 2.5–100 μM chorismate. The Km for glutamine (Km^Gln) was determined in the total volume of 1 ml assay buffer containing 100 mM potassium phosphate, pH 7.0, 10 mM MgCl2, 1 mM dithiothreitol with 200 μM chorismate and varying the concentration of L-glutamine between 0.1–2 mM L-glutamine. IC50 for tryptophan (IC50TrP) was determined with in the total volume of 1 ml assay buffer containing 100 mM potassium phosphate, pH 7.0, 10 mM MgCl2, 1 mM dithiothreitol, 10 mM L-glutamine, 200 μM chorismate and varying the concentration of L-tryptophan between 0.1–10 mM L-tryptophan. Kinetic parameters and IC50 of AS were calculated after fitting the data to a non-linear regression program (GraFit).

[9] = molecular target: Agrobacterium tumefaciens anthranilate synthase variant S51C, SEQ ID NO:61 (Agrobacterium fabrum, UniProt A9CI26, S51C); assay: Anthranilate synthase enzyme assay and kinetic analysis, S51C mutant
Description: as §1, §2, §3, §4

Sequence of Agrobacterium tumefaciens anthranilate synthase (AgroAS), wild type, SEQ ID NO:4 (A9CI26 entry or part of it): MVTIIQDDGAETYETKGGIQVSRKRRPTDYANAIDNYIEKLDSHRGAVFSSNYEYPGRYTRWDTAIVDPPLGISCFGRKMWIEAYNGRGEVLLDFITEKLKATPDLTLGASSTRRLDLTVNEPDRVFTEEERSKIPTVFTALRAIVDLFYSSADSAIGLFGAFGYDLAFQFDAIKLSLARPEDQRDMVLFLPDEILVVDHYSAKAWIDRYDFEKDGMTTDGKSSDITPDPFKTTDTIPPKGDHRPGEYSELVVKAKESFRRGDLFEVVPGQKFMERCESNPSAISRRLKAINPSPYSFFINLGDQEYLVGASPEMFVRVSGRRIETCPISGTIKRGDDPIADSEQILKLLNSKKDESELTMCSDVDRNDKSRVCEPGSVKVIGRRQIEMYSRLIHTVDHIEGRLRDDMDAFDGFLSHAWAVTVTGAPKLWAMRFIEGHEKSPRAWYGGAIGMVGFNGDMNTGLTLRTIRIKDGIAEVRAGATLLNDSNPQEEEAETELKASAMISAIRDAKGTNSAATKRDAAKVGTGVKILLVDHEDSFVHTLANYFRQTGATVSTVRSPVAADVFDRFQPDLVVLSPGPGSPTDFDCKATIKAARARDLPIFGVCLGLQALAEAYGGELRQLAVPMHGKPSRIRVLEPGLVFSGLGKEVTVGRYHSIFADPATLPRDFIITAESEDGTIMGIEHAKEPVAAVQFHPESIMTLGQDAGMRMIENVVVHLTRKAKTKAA
Sequence of Agrobacterium tumefaciens anthranilate synthase variant N52F, SEQ ID NO:62 (A9CI26 whole entry N52F): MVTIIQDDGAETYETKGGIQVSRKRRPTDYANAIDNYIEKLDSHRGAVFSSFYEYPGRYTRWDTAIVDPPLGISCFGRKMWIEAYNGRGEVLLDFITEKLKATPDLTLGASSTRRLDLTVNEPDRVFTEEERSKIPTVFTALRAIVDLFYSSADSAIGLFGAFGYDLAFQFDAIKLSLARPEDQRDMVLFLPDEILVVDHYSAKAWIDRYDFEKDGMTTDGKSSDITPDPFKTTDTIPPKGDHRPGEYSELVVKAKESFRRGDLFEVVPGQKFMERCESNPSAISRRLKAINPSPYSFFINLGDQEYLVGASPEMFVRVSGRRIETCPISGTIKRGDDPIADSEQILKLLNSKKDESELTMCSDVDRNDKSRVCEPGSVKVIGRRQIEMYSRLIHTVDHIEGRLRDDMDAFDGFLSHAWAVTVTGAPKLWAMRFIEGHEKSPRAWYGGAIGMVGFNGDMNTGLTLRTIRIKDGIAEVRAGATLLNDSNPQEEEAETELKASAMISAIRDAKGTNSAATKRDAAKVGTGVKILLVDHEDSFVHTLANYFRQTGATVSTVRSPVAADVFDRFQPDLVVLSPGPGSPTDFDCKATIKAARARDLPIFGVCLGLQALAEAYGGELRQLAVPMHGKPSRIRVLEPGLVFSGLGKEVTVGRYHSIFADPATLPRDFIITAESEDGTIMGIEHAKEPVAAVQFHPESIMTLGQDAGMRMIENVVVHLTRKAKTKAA
Sequence of Agrobacterium tumefaciens anthranilate synthase variant S51F, SEQ ID NO:60 (A9CI26 whole entry S51F): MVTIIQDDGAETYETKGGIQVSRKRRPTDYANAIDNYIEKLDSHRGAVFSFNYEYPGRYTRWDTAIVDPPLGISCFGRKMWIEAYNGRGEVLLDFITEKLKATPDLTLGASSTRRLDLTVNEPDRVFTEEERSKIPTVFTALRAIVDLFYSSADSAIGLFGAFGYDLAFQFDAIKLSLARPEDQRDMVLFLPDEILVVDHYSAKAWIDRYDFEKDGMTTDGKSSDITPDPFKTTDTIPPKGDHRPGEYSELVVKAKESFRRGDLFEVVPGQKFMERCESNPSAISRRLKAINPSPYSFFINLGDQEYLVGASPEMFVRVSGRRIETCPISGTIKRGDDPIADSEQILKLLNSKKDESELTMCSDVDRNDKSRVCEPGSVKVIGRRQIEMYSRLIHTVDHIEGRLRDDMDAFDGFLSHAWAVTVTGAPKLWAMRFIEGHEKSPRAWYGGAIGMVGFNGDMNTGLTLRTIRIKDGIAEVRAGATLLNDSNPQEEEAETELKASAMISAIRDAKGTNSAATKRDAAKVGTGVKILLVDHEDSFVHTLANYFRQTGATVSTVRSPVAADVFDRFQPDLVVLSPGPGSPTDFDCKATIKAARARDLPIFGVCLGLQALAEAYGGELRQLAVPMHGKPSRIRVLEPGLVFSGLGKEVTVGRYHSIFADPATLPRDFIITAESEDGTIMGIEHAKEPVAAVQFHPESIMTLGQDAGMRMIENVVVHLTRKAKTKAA
Sequence of Agrobacterium tumefaciens anthranilate synthase variant P293G, SEQ ID NO:64 (A9CI26 whole entry P293G): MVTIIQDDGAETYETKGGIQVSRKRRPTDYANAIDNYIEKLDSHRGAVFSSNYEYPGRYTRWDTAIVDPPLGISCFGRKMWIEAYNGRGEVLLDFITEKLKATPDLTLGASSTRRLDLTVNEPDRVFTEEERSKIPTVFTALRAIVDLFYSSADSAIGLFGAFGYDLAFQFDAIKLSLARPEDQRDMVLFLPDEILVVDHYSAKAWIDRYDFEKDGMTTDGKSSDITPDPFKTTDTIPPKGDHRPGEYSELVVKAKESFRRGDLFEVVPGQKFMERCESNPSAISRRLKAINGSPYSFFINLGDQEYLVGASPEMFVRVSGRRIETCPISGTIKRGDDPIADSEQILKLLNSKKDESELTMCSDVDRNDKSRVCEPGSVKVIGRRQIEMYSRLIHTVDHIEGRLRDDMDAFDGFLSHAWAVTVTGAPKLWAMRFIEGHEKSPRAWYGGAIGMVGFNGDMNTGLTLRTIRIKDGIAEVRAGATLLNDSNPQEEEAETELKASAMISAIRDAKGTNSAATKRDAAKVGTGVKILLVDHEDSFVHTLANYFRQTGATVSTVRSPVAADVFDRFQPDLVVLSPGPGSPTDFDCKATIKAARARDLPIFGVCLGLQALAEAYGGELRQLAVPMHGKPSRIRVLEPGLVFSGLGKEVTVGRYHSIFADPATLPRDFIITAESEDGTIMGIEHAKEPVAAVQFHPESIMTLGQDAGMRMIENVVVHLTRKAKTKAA
Sequence of Agrobacterium tumefaciens anthranilate synthase variant S50K, SEQ ID NO:69 (A9CI26 whole entry S50K): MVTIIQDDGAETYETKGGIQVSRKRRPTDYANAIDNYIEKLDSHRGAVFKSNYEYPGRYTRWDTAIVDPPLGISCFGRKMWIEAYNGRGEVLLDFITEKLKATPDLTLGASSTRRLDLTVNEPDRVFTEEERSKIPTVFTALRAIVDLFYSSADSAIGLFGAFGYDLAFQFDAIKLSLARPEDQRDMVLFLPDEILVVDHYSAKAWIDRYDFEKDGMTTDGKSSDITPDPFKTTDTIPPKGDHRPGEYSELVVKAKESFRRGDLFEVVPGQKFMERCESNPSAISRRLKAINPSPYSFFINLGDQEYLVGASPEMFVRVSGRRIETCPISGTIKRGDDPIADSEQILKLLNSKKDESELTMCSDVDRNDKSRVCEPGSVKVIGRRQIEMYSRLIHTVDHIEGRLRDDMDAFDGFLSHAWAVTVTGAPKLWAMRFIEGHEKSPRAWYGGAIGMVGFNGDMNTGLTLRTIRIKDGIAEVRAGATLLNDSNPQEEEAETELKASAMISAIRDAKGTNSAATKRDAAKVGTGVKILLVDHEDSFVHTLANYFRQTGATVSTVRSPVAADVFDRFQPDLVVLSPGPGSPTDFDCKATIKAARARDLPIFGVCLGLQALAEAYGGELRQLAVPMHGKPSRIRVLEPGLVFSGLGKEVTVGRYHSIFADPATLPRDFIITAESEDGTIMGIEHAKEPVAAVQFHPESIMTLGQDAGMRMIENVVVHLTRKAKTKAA
Sequence of Agrobacterium tumefaciens anthranilate synthase variant S51C, SEQ ID NO:61 (A9CI26 whole entry S51C): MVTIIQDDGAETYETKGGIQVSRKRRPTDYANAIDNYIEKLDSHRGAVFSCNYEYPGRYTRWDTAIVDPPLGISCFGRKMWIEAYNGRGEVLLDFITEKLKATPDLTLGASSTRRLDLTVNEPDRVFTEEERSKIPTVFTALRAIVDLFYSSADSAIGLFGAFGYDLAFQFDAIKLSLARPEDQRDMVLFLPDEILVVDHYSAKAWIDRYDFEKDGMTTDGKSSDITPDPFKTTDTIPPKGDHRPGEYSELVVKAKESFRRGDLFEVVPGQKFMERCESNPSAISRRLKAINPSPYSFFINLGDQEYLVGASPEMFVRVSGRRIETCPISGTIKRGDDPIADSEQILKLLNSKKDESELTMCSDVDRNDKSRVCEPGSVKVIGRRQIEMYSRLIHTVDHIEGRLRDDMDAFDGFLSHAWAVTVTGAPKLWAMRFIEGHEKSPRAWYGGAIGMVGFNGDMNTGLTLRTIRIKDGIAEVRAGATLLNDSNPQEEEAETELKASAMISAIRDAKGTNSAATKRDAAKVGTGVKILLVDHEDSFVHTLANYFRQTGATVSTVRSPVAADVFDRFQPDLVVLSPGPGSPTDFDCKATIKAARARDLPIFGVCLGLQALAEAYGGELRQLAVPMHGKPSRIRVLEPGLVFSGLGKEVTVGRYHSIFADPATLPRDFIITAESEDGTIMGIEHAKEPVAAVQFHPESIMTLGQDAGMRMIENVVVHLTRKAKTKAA

N[C@@H](Cc1c[nH]c2ccccc12)C(=O)O [L-tryptophan]
IC50 [1]: 41 µM
IC50 [2]: 650 µM
IC50 [3]: 17 µM
IC50 [4]: > 32 mM
IC50 [5]: 100 nM
IC50 [6]: 150 µM
IC50 [7]: 14 µM
IC50 [8]: 5 µM
IC50 ([8]; read-out: IC50^trp, wild type, Table J (5-MT resistant clones)): 5 µM
IC50 [9]: 1.5 mM
